System: N2a cells
Assay: In vitro cell-based neurite length (N2a) assay
Conditions: Mus musculus, neurite retraction induced by 5 uM LPA
Description: In Vitro Cell-Based Neurite Length (N2a) Assay
N2a cells are maintained in DMEM/FBS at 37 C and 5% CO2. For the experiment the cells were plated on a poly-D-lysine coated 96-well tissue culture plate. After attachment, cell differentiation was induced for 2 days by addition of 10 uM retinoic acid. Cells were treated for 1 h with a dilution of compounds in 0.3% DMSO final concentration before neurite retraction was induced by 5 uM LPA. Cells were stained for tubulin and nuclei and images were acquired on an INCell 1000 workstation. Images were analyzed using the developer toolbox and neurite length was quantitated.

- IC50: 27 nM
Structure (SMILES): COc1ccc2c(c1)CC(C(=O)Nc1ccc(-c3cn[nH]c3)cc1)CO2 (stereo not shown) [Example 92, 6-methoxy-chroman-3-carboxylic acid [4-(1H-pyrazol-4-yl)-phenyl]-amide]
